Data reported in BindingDB's records for doi:10.1021/jm031106i (Linkoping University, 2004).

What was measured:
Assay in all cases: Enzyme Inhibition Measurements
Cathepsin D = Cathepsin D (Homo sapiens, UniProt P07339)
Procedure: (§1) Enzyme activities were assayed by monitoring the hydrolysis of substrate in the presence or absence of inhibitor compounds. The hydrolysis was recorded as the increase in fluorescence intensity over a 10 min time period. IC50 values were obtained by assuming competitive inhibition and fitting the dose response data to the equation (Vi/V0) =1/ (1 + [I]/IC50)). The Ki was calculated by using Ki = IC50/ (1 + [S]/Km), and a Km value determined according to Michaelis-Menten.

Plasmepsin I = Plasmepsin I (Plasmodium falciparum, UniProt P39898)
Procedure: as §1

Plasmepsin II = Plasmepsin II (Plasmodium falciparum (isolate HB3), UniProt P46925); conditions: pH 4.5; 22 °C
Procedure: as §1

Sequence of Plasmepsin II (P46925 whole entry): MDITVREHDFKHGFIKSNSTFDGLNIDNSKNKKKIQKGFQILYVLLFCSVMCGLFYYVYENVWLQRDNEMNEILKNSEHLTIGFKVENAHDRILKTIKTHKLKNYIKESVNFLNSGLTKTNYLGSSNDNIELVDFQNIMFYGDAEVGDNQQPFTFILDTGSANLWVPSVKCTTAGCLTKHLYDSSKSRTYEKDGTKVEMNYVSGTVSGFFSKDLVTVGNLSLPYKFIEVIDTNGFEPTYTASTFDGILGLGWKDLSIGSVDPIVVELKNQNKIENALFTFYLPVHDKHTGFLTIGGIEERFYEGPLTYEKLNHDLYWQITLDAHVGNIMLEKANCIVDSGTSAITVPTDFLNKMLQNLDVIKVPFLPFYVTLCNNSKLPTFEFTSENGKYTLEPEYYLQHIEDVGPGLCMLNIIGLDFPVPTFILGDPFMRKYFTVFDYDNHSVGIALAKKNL
Sequence of Cathepsin D (P07339 65-162 limits assumed): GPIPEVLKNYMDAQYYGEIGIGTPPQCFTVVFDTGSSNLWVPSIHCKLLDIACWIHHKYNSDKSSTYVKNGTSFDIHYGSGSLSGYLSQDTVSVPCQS
Sequence of Cathepsin D (P07339 169-412 limits assumed): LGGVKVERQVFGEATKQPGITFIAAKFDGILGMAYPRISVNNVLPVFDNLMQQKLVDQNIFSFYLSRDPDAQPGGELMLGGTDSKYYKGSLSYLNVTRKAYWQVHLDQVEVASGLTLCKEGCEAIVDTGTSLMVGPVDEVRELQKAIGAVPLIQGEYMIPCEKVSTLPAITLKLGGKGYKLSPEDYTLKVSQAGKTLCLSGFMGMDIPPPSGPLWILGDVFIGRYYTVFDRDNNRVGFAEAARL
Sequence of Plasmepsin I (P39898 whole entry): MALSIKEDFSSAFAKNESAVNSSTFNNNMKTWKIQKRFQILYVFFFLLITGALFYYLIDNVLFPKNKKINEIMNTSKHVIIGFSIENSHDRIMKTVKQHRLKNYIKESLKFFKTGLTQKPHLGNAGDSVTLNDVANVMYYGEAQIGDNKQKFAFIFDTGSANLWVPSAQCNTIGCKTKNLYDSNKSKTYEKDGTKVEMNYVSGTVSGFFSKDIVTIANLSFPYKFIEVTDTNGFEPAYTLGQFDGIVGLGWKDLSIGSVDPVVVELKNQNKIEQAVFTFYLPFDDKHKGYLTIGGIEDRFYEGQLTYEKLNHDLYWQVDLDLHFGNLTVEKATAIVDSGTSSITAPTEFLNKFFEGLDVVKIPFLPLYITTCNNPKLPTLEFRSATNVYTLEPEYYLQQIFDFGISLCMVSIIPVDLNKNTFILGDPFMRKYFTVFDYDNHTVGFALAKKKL

## CC(C)[C@H](NC(=O)c1ccccn1)C(=O)N[C@@H](COCc1ccc(Br)cc1)[C@@H](O)CC(=O)NCC1CCCCC1 [(3S,4S)-5-[(4-bromophenyl)methoxy]-N-(cyclohexylmethyl)-3-hydroxy-4-[(2S)-3-methyl-2-(pyridin-2-ylformamido)butanamido]pentanamide]
Cathepsin D
  Ki: 0.586 µM
Plasmepsin I
  Ki: 0.0039 µM
Plasmepsin II
  Ki: 0.041 µM
